Experimental data published in patent publication US20240293405A1, “(1H-PYRROLO[2,3-B]PYRIDIN-1-YL)PYRIMIDIN-2-YL-AMINO-PHENYL-ACRYLAMIDE INHIBITORS OF EGFR FOR USE IN THE TREATMENT OF BRAIN TUMORS” (Dana-Farber Cancer Institute, Inc., priority 2021, published 2024).
Where “and” joins values, the source holds several entries; their conditions need not be identical. Equal values may be shown once. Read-outs that look alike come from different tables or passages of the source. One block for each molecule: values may come before it.

Assays:
BT112 cells = test: Cell viability, patient-derived GBM line BT112; settings: Homo sapiens, 72 h
Experimental: (§1) Primary human glioblastoma lines BT112, BT179 and BT333 were maintained in NeuroCult proliferation medium (human) (StemCell Technologies) with 20 ng/ml EGF, 10 ng/ml FGF and 0.0002% Heparin.
(§2) Cells were seeded in 96-well plates at a density of 1,000 cells per well and treated with two-fold serial dilutions of compounds with a starting concentration of 20 μM. Cell viability was assessed after three days of treatment by CellTiter-Glo (Promega). Curve fitting analysis and IC50 value determination were performed using GraphPad Prism 8.

BT179 cells = test: Cell viability, patient-derived GBM line BT179; settings: Homo sapiens, 72 h
Experimental: as §1, §2

BT333 cells = test: Cell viability, patient-derived GBM line BT333; settings: Homo sapiens, 72 h
Experimental: as §1, §2

Glioblastoma = settings: previously published report, cited from earlier work
P-gp, Bcrp = settings: previously published report; cited from earlier work
[1] = Brain and plasma exposure after 5 hour intravenous infusion; format: in vivo, Sprague Dawley rats; settings: for Kp at 5 h: iv, read-out: Brain/Plasma (ratios)
Experimental: A single IV infustion for 5 hours was administered to each animal, which were then twice observed clinically (30 minutes to 1 hour post-posing and at the end of the study (TTerminal). Blood samples were collected at 5 time points from each animal over the 5 hour infusion period (5 minutes, 1 hour, 2, hours, 3 hours and TTerminal) and processed to plasma. Brains were collected at Tterminal (blotted, weighed, and snap frozen) and brain exposure was compared. […]

[2] = Brain and plasma exposure after single oral dose; format: in vivo, Sprague Dawley rats; settings: gefitinib 50 mg/kg PO
Description: Genfitinib concentrations were quantitated by LC-MS/MS from brain and plasma from Group 1 animals.

[3] = Brain and plasma exposure after single oral dose; format: in vivo, Sprague Dawley rats; settings: Sprague Dawley, rat, 50 mg/kg, gefitinib 50 mg/kg PO, 7 hr; for concentration at 7 h: oral
[4] = Cardiovascular function (telemetry); format: in vivo, dog; settings: plasma; dog, 100 mg/kg Compound 1 PO; M38 as metabolite; read-out: estimated single-dose Cmax
Experimental: This arrythmia was not associated with maximum plasma concentration (Cmax) or Tmax of either parent or metabolite. No definitive link to the test article could be identified. Given the unexplained reversible arrythmia in this high-dose (100 mg/kg) telemetry dog, routine electrocardiogram (ECG) monitoring in Phase 1 is recommended.

[5] = Oral dog 4-week toxicity study with toxicokinetics; format: in vivo, beagle dogs; settings: beagle, in vivo, dog Day 28 mean, Compound 2 as metabolite; for AUC(0-t): read-out: AUC0-24
Experimental: Compound 1 (0, 10, 30, and 100 mg/kg/day) was given orally, once daily by gavage, to male and female beagle dogs (4/sex) for up to 28 days. […] The cause of death in this high-dose male was attributed to myocardial degeneration. This lesion was not observed in any other dog on study. Increases in alkaline phosphatase, globulin, cholesterol, triglycerides and fibrinogen and decreased reticulocyte counts noted in the high-dose group at mid-study returned towards baseline by the end of the study following 11/12 days of recovery. Testicular changes at all doses (seminiferous epithelial vacuolation at 10 and 30 mg/kg and degeneration/atrophy at 100 mg/kg) were not reversible in this short-term study; the reversibility period was not long enough to assess reversibility of testicular changes.
The increases were generally dose-proportional or greater-than dose-proportional on Day 1 and Day 28. Gender difference was not observed. No significant accumulation of Compound 1 or Compound 2 was observed.
Thirty-two beagle dogs (conventional, naive) were divided into four groups. Each group consists of four male and four female. Group 1 beagle dogs were administered vehicle and groups 2-4 beagle dogs were administered Compound 1 at 10 mg/kg, 30 mg/kg, and 100 mg/kg, respectively, by oral gavage once daily for 28 consecutive days (Table 15). […] Cmax (ng/mL) and AUClast (hr*ng/mL) of Compound 1 on day 1 were obtained for groups 2-4 (Table 15).

[6] = system: 468 human kinases and disease relevant mutant variants; test: Kinase selectivity binding panel (468 kinases); settings: 468 kinase panel, 1 μM free base
Experimental: Compound 1 and Compound 2 (major metabolite) were evaluated in a panel of 468 human kinases and disease relevant mutant variants. Compound 1 and Compound 2 bound to few non-mutant kinases at <1% of control. […] While there is some variability between Compound 1 and Compound 2, it is clear that both compounds are very effective at binding to a large panel of mutant kinases. […] Binding constant to wild type EGFR was 4.9 nM.

[7] = Pharmacokinetics in rats (IV, PO); format: in vivo, rat; settings: rat, plasma, Compound 2 as metabolite
Description: Exposure was generally dose proportional.

[8] = 3 mg/kg IV infusion over 5 h, 5 h, individual animal, Compound 2 as metabolite in Compound 1-dosed rats
[9] = male, Sprague Dawley, rat, brain, intravenous, 3 mg/kg, 3 mg/kg IV infusion over 5 h, 5 h, individual animal, Compound 2 as metabolite in Compound 1-dosed rats, read-out: Brain Tissue Concentration
[10] = male, Sprague Dawley, rat, brain, intravenous, 3 mg/kg, 3 mg/kg IV infusion over 5 h, 5 h, mean n=6, Compound 2 as metabolite, read-out: Brain Tissue Concentration
[11] = male, Sprague Dawley, rat, plasma, intravenous, 3 mg/kg, 3 mg/kg IV infusion over 5 h, 1 h, individual animal, Compound 2 as metabolite in Compound 1-dosed rats
[12] = male, Sprague Dawley, rat, plasma, intravenous, 3 mg/kg, 3 mg/kg IV infusion over 5 h, 2 h, individual animal, Compound 2 as metabolite in Compound 1-dosed rats
[13] = male, Sprague Dawley, rat, plasma, intravenous, 3 mg/kg, 3 mg/kg IV infusion over 5 h, 5 h, individual animal, Compound 2 as metabolite in Compound 1-dosed rats, read-out: Plasma Concentration
[14] = female, 10 mg/kg Compound 1 PO, F
[15] = female, 30 mg/kg Compound 1 PO, F
[16] = male, 10 mg/kg Compound 1 PO, M
[17] = male, 30 mg/kg Compound 1 PO, M

SMILES: C#Cc1cccc(Nc2ncnc3cc(OCCOC)c(OCCOC)cc23)c1 [Erlotinib]
IC50 (BT112 cells): 18.5 µM
IC50 (BT179 cells): 11.7 µM
IC50 (BT333 cells): 52.3 µM
Glioblastoma (treatment outcome) (Glioblastoma): Failed
Glioblastoma (treatment outcome) (Glioblastoma; listed as erlotinib): failed
Efflux Liability (P-gp, Bcrp): P-gp, Bcrp

IC50 (BT112 cells): 5.22 µM
IC50 (BT179 cells): 2.32 µM
IC50 (BT333 cells): 7.91 µM
SMILES: CS(=O)(=O)CCNCc1ccc(-c2ccc3ncnc(Nc4ccc(OCc5cccc(F)c5)c(Cl)c4)c3c2)o1 [Lapatinib]

concentration at 5 h [1, 9]: 155 ng/g
concentration at 5 h [1, 10]: 154 ng/g
concentration at 0.083 h ([1]; male, Sprague Dawley, rat, plasma, intravenous, 3 mg/kg, 3 mg/kg IV infusion over 5 h, 0.083 h, individual animal, Compound 2 as metabolite in Compound 1-dosed rats): 55.6 ng/mL
concentration at 1 h [1, 11]: 115 ng/mL
concentration at 2 h [1, 12]: 161 ng/mL
concentration at 5 h [1, 13]: 286 ng/mL
concentration at 3 h ([2]; Sprague Dawley, rat, plasma, oral, 50 mg/kg, 3 hr, mean n=3): 1950 ng/mL
Plasma Concentration ([2]; 3 hr, individual animal): 2660 ng/mL and 1940 ng/mL and 1260 ng/mL
Brain Tissue Concentration ([2]; 7 hr, individual animal): 666 ng/g and 562 ng/g and 561 ng/g
Plasma Concentration ([2]; 7 hr, individual animal): 2240 ng/mL and 4700 ng/mL and 1030 ng/mL
concentration at 7 h ([3]; brain, individual animal, read-out: Brain Tissue Concentration): 561 ng/g
concentration at 7 h ([3]; brain, mean n=3, read-out: Brain Tissue Concentration): 596 ng/g
Kp at 7 h ([3]; brain, po, mean n=3, read-out: Brain/Plasma (ratios)): 0.22
concentration at 7 h ([3]; plasma, mean n=3, read-out: Plasma Concentration): 2660 ng/mL
SMILES: COc1cc2ncnc(Nc3ccc(F)c(Cl)c3)c2cc1OCCCN1CCOCC1 [Gefitinib, reference compound]
Brain Tissue Concentration [1, 8]: 153 ng/g and 129 ng/g and 151 ng/g and 149 ng/g and 189 ng/g and 155 ng/g
Glioblastoma (treatment outcome) (Glioblastoma): Failed
Glioblastoma (treatment outcome) (Glioblastoma; listed as gefitinib): failed
Efflux Liability (P-gp, Bcrp): P-gp, Bcrp

SMILES: C=CC(=O)Nc1cc(Nc2nccc(-n3ccc4cccnc43)n2)c(OC)cc1N(C)CCNC [Compound 2, N-(5-((4-(1H-pyrrolo[2,3-b]pyridin-1-yl)pyrimidin-2-yl)amino)-4-methoxy-2-(methyl(2-(methylamino)ethyl)amino)phenyl)acrylamide]
Cmax [4]: ~367 ng/mL and ~750 nM
Plasma Concentration ([1]; 3 mg/kg IV infusion over 5 h, 0.083 h, individual animal, Compound 2 as metabolite in Compound 1-dosed rats): BLQ
Plasma Concentration ([1]; 3 mg/kg IV infusion over 5 h, 0.083 h, mean n=6, Compound 2 as metabolite): BLQ
Plasma Concentration ([1]; 3 mg/kg IV infusion over 5 h, 1 h, individual animal, Compound 2 as metabolite in Compound 1-dosed rats): 3.47 ng/mL (2×) and 3.14 ng/mL and 3.28 ng/mL and 2.71 ng/mL
Plasma Concentration ([1]; 3 mg/kg IV infusion over 5 h, 2 h, individual animal, Compound 2 as metabolite in Compound 1-dosed rats): 7.75 ng/mL and 6.99 ng/mL and 8.41 ng/mL and 7.39 ng/mL and 6.20 ng/mL
Plasma Concentration ([1]; 3 mg/kg IV infusion over 5 h, 3 h, individual animal, Compound 2 as metabolite in Compound 1-dosed rats): 12.9 ng/mL and 10.6 ng/mL and 12.7 ng/mL and 12.5 ng/mL and 12.3 ng/mL
Brain Tissue Concentration [1, 8]: 23.6 ng/g and 20.9 ng/g and 21.0 ng/g and 21.6 ng/g and 19.8 ng/g
Brain/Plasma (ratios) [1, 8]: 1.30 and 1.07 and 1.11 and 1.06
Plasma Concentration [1, 8]: 18.1 ng/mL and 19.6 ng/mL and 18.9 ng/mL and 20.4 ng/mL and 16.8 ng/mL
brain exposure relative to plasma ([1]; Compound 2 as metabolite, rat): essentially equal to plasma
concentration at 5 h [1, 9]: 24.5 ng/g
concentration at 5 h [1, 10]: 21.9 ng/g
Kp at 5 h ([1]; male, Sprague Dawley, rat, brain, 3 mg/kg, 3 mg/kg IV infusion over 5 h, 5 h, individual animal, Compound 2 as metabolite in Compound 1-dosed rats): 1.35
Kp at 5 h ([1]; male, Sprague Dawley, rat, brain, 3 mg/kg, 3 mg/kg IV infusion over 5 h, 5 h, mean n=6, Compound 2 as metabolite): 1.18
concentration at 1 h [1, 11]: 3.24 ng/mL
concentration at 1 h ([1]; male, Sprague Dawley, rat, plasma, intravenous, 3 mg/kg, 3 mg/kg IV infusion over 5 h, 1 h, mean n=6, Compound 2 as metabolite): 3.22 ng/mL
concentration at 2 h [1, 12]: 5.62 ng/mL
concentration at 2 h ([1]; male, Sprague Dawley, rat, plasma, intravenous, 3 mg/kg, 3 mg/kg IV infusion over 5 h, 2 h, mean n=6, Compound 2 as metabolite): 7.06 ng/mL
concentration at 3 h ([1]; male, Sprague Dawley, rat, plasma, intravenous, 3 mg/kg, 3 mg/kg IV infusion over 5 h, 3 h, individual animal, Compound 2 as metabolite in Compound 1-dosed rats): 12.9 ng/mL
concentration at 3 h ([1]; male, Sprague Dawley, rat, plasma, intravenous, 3 mg/kg, 3 mg/kg IV infusion over 5 h, 3 h, mean n=6, Compound 2 as metabolite): 12.3 ng/mL
concentration at 5 h [1, 13]: 18.2 ng/mL
concentration at 5 h ([1]; male, Sprague Dawley, rat, plasma, intravenous, 3 mg/kg, 3 mg/kg IV infusion over 5 h, 5 h, mean n=6, Compound 2 as metabolite, read-out: Plasma Concentration): 18.7 ng/mL
Cmax [5, 14]: 242 ng/mL
AUC(0-t) [5, 14]: 3360 ng·h/mL
Cmax [5, 15]: 161 ng/mL
AUC(0-t) [5, 15]: 1790 ng·h/mL
Cmax [5, 16]: 143 ng/mL
AUC(0-t) [5, 16]: 1420 ng·h/mL
Cmax [5, 17]: 263 ng/mL
AUC(0-t) [5, 17]: 2980 ng·h/mL
targeted non-mutant kinases (bound at <1% of control) [6]: ERBB2, JAK3 (JH1-domain-catalytic), MKNK2, MTOR, OSR1 and TNK1
half-life [7]: ~9 h
Tmax ([7]; po): ~7 h

SMILES: COc1cc2ncnc(Nc3ccc(F)c(Cl)c3)c2cc1NC(=O)/C=C/CN1CCCCC1 [Vizimpro]
Glioblastoma (treatment outcome) (Glioblastoma): Failed
Glioblastoma (treatment outcome) (Glioblastoma; listed as visimpro): failed

SMILES: CN(C)C/C=C/C(=O)Nc1cc2c(Nc3ccc(F)c(Cl)c3)ncnc2cc1O[C@H]1CCOC1 [Afatinib]
Efflux Liability (P-gp, Bcrp): P-gp, Bcrp
